Data as given in patent US8093218B2, “Peptide derived from vascular endothelial growth factor receptor-1 binding integrin α5β1 having proangiogenic activity” (Provincia Italiana della Congregazione dei Figli …, priority 2006, dated 2012).
Entries after “also recorded” stand apart in the source; their conditions may differ.

What was measured:
[1] = tested on: HUVEC adhesion to VEGFR-1/Fc; assay: inhibition by peptides of EC adhesion to VEGFR-1/Fc; format: cell-based, human; conditions: peptide added to HUVEC suspension before plating
Experimental: (§1) In order to test the ability of the twelve chosen peptides to inhibit the adhesion of the EC to VEGFR-1 mediated from the integrin α5β1, every peptide was added to one suspension of HUVEC before plated on dishes covered with VEGFR-1/Fc or fibronectin (FN). The data were indicated as percentage of adhesion, calculated to the number of cells adhered on the substrate itself in absence of peptides.

[2] = tested on: HUVEC adhesion to fibronectin (FN); assay: inhibition by peptides of EC adhesion to fibronectin; format: cell-based, human; conditions: peptide added to HUVEC suspension before plating
Experimental: as §1

HUVEC [3] = assay: adhesion of HUVEC on plates with covalently linked peptides; format: cell-based, human; conditions: HUVEC incubated 1 hour on covalently linked peptide
Experimental: To establish whether the four peptides, were able to inhibit the adhesion of the EC to VEGFR-1, by supporting directly the adhesion of the EC, the peptides were linked covalently to plates and the HUVEC were incubated on plates for 1 hour. The peptide 1 was used as negative control and the peptide RGD as the positive control. Unspecific adhesion was measured by absorbance in the plates covered with BSA.

[4] = tested on: HUVEC adhesion to peptide 12; assay: adhesion of HUVEC to peptide 12 in presence of chelating agents or anti-integrin antibodies; format: cell-based, human; conditions: EDTA or EGTA treatment
Experimental: The peptide 12 or the BSA, as non-specific adhesion control, were linked on plates and the HUVEC added in the presence of chelating agents (EDTA or EGTA).
The HUVEC were pre-incubated with an antibody against the integrin α5β1 or versus the integrinic subunit α6 and left to adhere on plates covered with peptide 12 or BSA.

[5] = tested on: HUVEC migration induced from VEGFR-1/Fc; assay: EC migration in Boyden chambers induced by VEGFR-1/Fc; format: cell-based, human; conditions: HUVEC pre-incubated with peptide
Experimental: (§2) In order to investigate the ability to peptide 12 to influence the migration of the EC induced from VEGFR-1/Fc, a process mediated from the integrin α5β1, the HUVEC were pre-incubated with peptide 12 and peptide 1 and placed in Boyden chambers in order to analyze the migration induced from VEGFR-1/Fc or fibronectin (FN). Data represent the average of 14 microscopic fields and are referred to as percentage of inhibition compared to the migration observed in the absence of peptides.

[6] = tested on: HUVEC migration induced by fibronectin (FN); assay: EC migration in Boyden chambers induced by fibronectin; format: cell-based, human; conditions: HUVEC pre-incubated with peptide
Experimental: as §2

HUVEC [7] = assay: formation of tubules of EC in Type I collagen gel; format: cell-based, human
Experimental: It was tested the ability of the peptide 12 to induce the formation of tubules of EC. HUVEC cells were plated on 24 wells plates previously covered with a mixture of gel Type I collagen, in the absence or presence of 500 μg/ml peptide 12 or peptide 1. A second layer of gel Type I collagen was placed on the adherent cells. As shown, in the absence or presence of peptides, were added, in the culture medium, different concentrations of VEGF (40 or 100 nM), or 20 μg/ml of protein VEGFR-1/Fc.

rabbit corneal tissue = assay: rabbit corneal neovascularization with peptide-releasing pellets; format: in vivo; conditions: rabbit cornea, monitored for 17 days
From the text: The FIGS. 6A and 6B show the effect on angiogenesis of the peptide 12 or Y220 compare to VEGF at different concentrations.
To address the angiogenic role, in vivo, pellets releasing peptide 12 were implanted into rabbit corneal tissue and neovascularization was monitored for 17 days.

integrin α5β1 = integrin α5β1 (Homo sapiens, UniProt P05556+P08648); assay: integrin α5β1 aggregation around peptide-coated magnetic beads (immunostaining); format: cell-based; set-up: endogenous in cells; host or cells: HUVEC; conditions: magnetic beads coated with peptide, immunostaining for integrin α5β1
Sequence of integrin α5β1 (P08648 42-894 limits assumed): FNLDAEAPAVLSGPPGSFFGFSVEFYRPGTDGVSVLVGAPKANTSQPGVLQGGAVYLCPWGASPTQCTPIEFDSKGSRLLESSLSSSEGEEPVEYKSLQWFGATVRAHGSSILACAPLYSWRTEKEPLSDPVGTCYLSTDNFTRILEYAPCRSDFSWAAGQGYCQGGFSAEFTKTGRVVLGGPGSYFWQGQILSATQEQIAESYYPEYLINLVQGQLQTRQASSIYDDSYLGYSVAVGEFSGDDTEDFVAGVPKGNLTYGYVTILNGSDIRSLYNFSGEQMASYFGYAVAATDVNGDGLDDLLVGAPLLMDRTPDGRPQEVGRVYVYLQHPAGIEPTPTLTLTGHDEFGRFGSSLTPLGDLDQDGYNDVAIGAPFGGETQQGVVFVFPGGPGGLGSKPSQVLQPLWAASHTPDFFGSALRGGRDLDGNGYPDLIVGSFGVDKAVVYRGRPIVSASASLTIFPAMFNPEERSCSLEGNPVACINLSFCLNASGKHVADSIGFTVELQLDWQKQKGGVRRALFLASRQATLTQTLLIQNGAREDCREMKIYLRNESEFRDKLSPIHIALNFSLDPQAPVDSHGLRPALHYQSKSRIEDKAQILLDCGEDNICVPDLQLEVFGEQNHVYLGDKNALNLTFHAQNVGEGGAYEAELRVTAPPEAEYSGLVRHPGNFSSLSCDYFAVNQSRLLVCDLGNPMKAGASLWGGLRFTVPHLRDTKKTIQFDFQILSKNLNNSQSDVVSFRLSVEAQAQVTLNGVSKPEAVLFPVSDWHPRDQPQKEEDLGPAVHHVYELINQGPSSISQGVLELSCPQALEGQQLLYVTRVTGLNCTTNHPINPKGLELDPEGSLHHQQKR
Sequence of integrin α5β1 (P08648 895-1049 partner limits assumed): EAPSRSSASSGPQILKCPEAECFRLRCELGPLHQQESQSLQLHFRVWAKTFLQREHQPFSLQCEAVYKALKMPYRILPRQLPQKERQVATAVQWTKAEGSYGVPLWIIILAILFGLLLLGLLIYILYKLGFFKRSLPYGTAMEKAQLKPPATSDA
Sequence of integrin α5β1 (P05556 21-798): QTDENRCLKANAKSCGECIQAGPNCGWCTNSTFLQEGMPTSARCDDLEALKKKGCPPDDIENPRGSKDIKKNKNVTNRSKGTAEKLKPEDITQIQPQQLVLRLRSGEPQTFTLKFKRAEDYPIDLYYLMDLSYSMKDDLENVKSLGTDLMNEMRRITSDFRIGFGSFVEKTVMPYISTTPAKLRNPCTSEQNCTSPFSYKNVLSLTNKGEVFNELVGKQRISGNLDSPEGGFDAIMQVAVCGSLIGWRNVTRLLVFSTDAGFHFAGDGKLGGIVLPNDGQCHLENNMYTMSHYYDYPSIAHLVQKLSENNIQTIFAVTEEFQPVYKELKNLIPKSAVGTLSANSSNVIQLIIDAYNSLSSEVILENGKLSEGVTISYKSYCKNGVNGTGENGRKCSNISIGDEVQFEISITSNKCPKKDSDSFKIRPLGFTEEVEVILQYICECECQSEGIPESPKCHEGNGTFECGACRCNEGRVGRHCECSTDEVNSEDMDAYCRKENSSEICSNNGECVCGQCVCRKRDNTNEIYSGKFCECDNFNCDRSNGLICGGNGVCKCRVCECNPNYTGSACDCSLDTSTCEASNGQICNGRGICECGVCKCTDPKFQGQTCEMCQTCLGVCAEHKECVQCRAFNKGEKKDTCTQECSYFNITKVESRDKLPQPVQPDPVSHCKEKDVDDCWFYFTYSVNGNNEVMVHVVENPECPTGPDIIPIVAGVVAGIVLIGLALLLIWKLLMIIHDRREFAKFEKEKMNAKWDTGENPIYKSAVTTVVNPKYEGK
Experimental: The integrins not linked are widely distributed on cellular membrane, but after the ligand binding and the activation merged in distinct structures called focal contacts and ECM contact.
It was examined whether the peptide 12 was able to induce aggregation of integrin α5β1 after the binding. EC adherent cells were incubated with magnetic beads coated with peptide 12, or peptide RGD or peptide RGE respectively as positive and negative controls, and immunostained with an antibody against integrin α5β1.

Substance: NYLTHRQ (listed as Homo sapiens) [peptide 12]
- inhibition of adhesion of EC to VEGFR-1/Fc [1]: effectively blocked; also recorded: inhibit cellular adhesion to sVEGFR-1
- inhibition of adhesion of EC to fibronectin [2]: partially inhibit
- direct support of EC adhesion by plate-linked peptide (HUVEC [3]): induced the adhesion of EC; also recorded: directly supports the adhesion of EC
- dependence of EC adhesion to peptide 12 on divalent cations [4]: requires divalent cations; also recorded: sensitive to divalent cations
- inhibition of EC migration induced by VEGFR-1/Fc [5]: completely annulled the migratory response; also recorded: inhibits the induced cellular migration from VEGFR-1
- inhibition of EC migration induced by fibronectin [6]: no significant inhibition
- effect on VEGF-induced tubule formation (HUVEC [7]; 500 μg/ml peptide with VEGF 40 nM): increased the formation of induced VEGF tubules
- induction of formation of tubules of EC (HUVEC [7]; 500 μg/ml peptide, collagen I matrix): able to induce in vitro the formation of vascular structures
- formation of vascular structures in presence of VEGFR-1/Fc (HUVEC [7]; peptide in presence of VEGFR-1/Fc (data not shown)): partially maintained its ability to induce the formation of vascular structures
- corneal neoangiogenesis (rabbit corneal tissue): strongly promoted neoangiogenesis
- integrin α5β1 aggregation / bead attachment on EC (integrin α5β1): A separate colouring for integrin α5β1 was observed around the beads
